# Assays:
# Test in all cases: KINATIV assay of compounds I-3 and I-9, lysate directly labeled with ATP-biotin probe (no GF)
# Format in all cases: cell-based
# [1] = molecular target: kinases in BCWM.1 cells (Homo sapiens, UniProt Q9UKE5); conditions: ZC2/TNIK; Lys1; 1 μM, 90 min; no GF
# Method: (§1) The cells were harvested and lysed. […] Bound kinases were identified and quantitated by ACTIVX as described in Patricelli et al., Biochemistry, 2007, 46(2): 350-358. The compounds were tested in duplicates against duplicate or quadruplicate control samples.
# [2] = molecular target: kinases in BCWM.1 cells (Homo sapiens, UniProt Q86UE8); conditions: TLK2; Lys2; 1 μM, 90 min; no GF
# Method: as §1
# [3] = molecular target: kinases in BCWM.1 cells (Homo sapiens, UniProt Q9H2G2); conditions: SLK; Lys2; 1 μM, 90 min; no GF
# Method: as §1
# [4] = molecular target: kinases in BCWM.1 cells (Homo sapiens, UniProt P51812); conditions: Lys2, 1 μM, 90 min, no GF
# Method: as §1
# [5] = molecular target: kinases in BCWM.1 cells (Homo sapiens, UniProt P51957); conditions: NEK4; Lys2; 1 μM, 90 min; no GF
# Method: as §1
# [6] = molecular target: kinases in BCWM.1 cells (Homo sapiens, UniProt P42680); conditions: TEC; Activation Loop; 1 μM, 90 min; no GF
# Method: as §1
# [7] = molecular target: kinases in BCWM.1 cells (Homo sapiens, UniProt Q9Y2H1); conditions: NDR2; Lys2; 1 μM, 90 min; no GF
# Method: as §1
# [8] = molecular target: kinases in BCWM.1 cells (Homo sapiens, UniProt Q9BYT3); conditions: STK33; Lys2; 1 μM, 90 min; no GF
# Method: as §1
# [9] = molecular target: kinases in BCWM.1 cells (Homo sapiens, UniProt P19525); conditions: PKR; Lys2; 1 μM, 90 min; no GF
# Method: as §1
# [10] = molecular target: kinases in BCWM.1 cells (Homo sapiens, UniProt Q8TD19); conditions: NEK9; Lys2; 1 μM, 90 min; no GF
# Method: as §1
# [11] = molecular target: kinases in BCWM.1 cells (Homo sapiens, UniProt Q9UBE8); conditions: NLK; Lys2; 1 μM, 90 min; no GF
# Method: as §1
# [12] = molecular target: kinases in BCWM.1 cells (Homo sapiens, UniProt Q96S38); conditions: RSKL1; ATP; 1 μM, 90 min; no GF
# Method: as §1
# [13] = molecular target: kinases in BCWM.1 cells (Homo sapiens, UniProt P23443); conditions: p70S6K; Lys2; 1 μM, 90 min; no GF
# Method: as §1
# [14] = molecular target: kinases in BCWM.1 cells (Homo sapiens, UniProt Q9BZL6); conditions: PKD2; Lys1; 1 μM, 90 min; no GF
# Method: as §1
# [15] = molecular target: kinases in BCWM.1 cells (Homo sapiens, UniProt O00329); conditions: PIK3CD; ATP; 1 μM, 90 min; no GF
# Method: as §1
# [16] = molecular target: kinases in BCWM.1 cells (Homo sapiens, UniProt Q9UBF8); conditions: PI4KB; ATP; 1 μM, 90 min; no GF
# Method: as §1
# [17] = molecular target: kinases in BCWM.1 cells (Homo sapiens, UniProt P48426); conditions: PIP4K2A; ATP; 1 μM, 90 min; no GF
# Method: as §1
# [18] = system: kinases in BCWM.1 cells; conditions: 1 μM, 90 min, no GF
# Method: as §1
# [19] = molecular target: kinases in BCWM.1 cells (Homo sapiens, UniProt Q9Y572); conditions: RIPK3; Lys2; 1 μM, 90 min; no GF
# Method: as §1
# [20] = molecular target: kinases in BCWM.1 cells (Homo sapiens, UniProt O95747); conditions: OSR1; Lys2; 1 μM, 90 min; no GF
# Method: as §1
# [21] = molecular target: kinases in BCWM.1 cells (Homo sapiens, UniProt Q16816); conditions: PHKg1; Protein Kinase Domain; 1 μM, 90 min; no GF
# Method: as §1
# [22] = molecular target: kinases in BCWM.1 cells (Homo sapiens, UniProt Q8NEB9); conditions: PIK3C3; ATP; 1 μM, 90 min; no GF
# Method: as §1
# [23] = molecular target: kinases in BCWM.1 cells (Homo sapiens, UniProt Q14289); conditions: PYK2; Activation Loop; 1 μM, 90 min; no GF
# Method: as §1
# [24] = molecular target: kinases in BCWM.1 cells (Homo sapiens, UniProt Q16539); conditions: p38a, 1 μM, 90 min, no GF
# Method: as §1
# [25] = molecular target: kinases in BCWM.1 cells (Homo sapiens, UniProt P29597); conditions: TYK2 domain2; Activation Loop; 1 μM, 90 min; no GF
# Method: as §1
# [26] = molecular target: kinases in BCWM.1 cells (Homo sapiens, UniProt Q9UBS0); conditions: p70S6Kb; Lys2; 1 μM, 90 min; no GF
# Method: as §1
# Sequence of kinases in BCWM.1 cells (Homo sapiens, UniProt Q16539) (Q16539 2-360 limits assumed): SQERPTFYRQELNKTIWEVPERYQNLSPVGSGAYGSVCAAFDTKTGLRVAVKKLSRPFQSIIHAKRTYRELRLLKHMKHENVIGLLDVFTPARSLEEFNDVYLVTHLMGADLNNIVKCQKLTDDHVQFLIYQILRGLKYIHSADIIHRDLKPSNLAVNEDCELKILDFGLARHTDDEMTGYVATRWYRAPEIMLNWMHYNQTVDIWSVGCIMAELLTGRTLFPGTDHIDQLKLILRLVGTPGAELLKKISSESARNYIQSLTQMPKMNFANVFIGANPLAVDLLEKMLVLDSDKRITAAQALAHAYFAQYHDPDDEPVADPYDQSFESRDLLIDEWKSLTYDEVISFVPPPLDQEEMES
# Sequence of kinases in BCWM.1 cells (Homo sapiens, UniProt P19525) (P19525 2-551 limits assumed): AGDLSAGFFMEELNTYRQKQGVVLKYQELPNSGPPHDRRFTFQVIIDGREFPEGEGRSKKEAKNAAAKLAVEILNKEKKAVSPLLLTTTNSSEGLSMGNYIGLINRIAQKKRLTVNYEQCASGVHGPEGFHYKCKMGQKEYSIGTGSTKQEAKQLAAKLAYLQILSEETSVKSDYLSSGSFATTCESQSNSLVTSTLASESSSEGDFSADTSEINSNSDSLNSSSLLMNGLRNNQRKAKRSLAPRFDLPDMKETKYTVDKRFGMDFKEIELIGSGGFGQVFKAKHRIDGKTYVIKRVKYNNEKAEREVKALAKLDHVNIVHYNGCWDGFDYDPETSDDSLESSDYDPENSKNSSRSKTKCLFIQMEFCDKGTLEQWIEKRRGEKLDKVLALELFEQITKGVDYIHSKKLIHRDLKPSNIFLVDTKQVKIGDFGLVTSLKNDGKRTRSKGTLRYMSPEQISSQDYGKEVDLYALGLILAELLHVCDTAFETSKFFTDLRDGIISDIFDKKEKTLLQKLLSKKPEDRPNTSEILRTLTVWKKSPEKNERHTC
# Sequence of kinases in BCWM.1 cells (Homo sapiens, UniProt Q9Y2H1) (Q9Y2H1 2-464 limits assumed): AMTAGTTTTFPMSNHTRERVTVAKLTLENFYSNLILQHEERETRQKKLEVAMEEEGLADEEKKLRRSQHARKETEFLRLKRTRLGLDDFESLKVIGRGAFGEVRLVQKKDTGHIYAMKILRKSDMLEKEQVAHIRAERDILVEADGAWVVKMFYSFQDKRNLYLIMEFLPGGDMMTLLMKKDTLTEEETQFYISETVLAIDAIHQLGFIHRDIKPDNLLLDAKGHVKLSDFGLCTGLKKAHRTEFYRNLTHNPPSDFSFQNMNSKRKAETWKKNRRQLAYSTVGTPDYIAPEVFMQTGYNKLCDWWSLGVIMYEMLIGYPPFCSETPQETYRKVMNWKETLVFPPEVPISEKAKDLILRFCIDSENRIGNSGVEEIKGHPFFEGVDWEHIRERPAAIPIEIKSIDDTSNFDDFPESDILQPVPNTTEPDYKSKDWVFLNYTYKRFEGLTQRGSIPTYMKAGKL
# Sequence of kinases in BCWM.1 cells (Homo sapiens, UniProt P48426) (P48426 2-406 limits assumed): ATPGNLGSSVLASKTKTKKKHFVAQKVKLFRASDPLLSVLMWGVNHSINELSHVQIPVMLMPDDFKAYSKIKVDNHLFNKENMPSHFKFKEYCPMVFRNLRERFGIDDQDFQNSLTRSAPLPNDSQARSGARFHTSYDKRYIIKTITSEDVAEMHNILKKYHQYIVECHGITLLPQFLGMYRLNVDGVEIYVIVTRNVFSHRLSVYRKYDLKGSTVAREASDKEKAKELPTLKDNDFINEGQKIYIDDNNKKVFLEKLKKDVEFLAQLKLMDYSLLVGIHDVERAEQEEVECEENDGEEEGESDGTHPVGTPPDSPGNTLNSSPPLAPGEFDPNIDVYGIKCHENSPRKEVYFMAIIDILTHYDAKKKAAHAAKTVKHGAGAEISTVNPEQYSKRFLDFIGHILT
# Sequence of kinases in BCWM.1 cells (Homo sapiens, UniProt O95747) (O95747 2-527 limits assumed): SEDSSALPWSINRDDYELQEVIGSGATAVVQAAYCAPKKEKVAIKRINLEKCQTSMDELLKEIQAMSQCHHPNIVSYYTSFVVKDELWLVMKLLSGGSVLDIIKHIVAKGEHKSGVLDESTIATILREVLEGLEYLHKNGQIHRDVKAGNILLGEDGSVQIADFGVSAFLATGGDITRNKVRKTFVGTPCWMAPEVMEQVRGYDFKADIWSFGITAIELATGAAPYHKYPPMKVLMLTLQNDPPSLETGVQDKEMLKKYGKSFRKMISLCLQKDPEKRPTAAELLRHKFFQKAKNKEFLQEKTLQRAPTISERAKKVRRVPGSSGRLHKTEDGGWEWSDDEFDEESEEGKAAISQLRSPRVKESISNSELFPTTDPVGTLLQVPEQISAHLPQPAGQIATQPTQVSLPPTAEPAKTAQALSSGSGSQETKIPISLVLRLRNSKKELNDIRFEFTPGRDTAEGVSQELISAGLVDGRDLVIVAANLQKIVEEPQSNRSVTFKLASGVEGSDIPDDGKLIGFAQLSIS
# Sequence of kinases in BCWM.1 cells (Homo sapiens, UniProt Q9UBF8) (Q9UBF8 2-816 limits assumed): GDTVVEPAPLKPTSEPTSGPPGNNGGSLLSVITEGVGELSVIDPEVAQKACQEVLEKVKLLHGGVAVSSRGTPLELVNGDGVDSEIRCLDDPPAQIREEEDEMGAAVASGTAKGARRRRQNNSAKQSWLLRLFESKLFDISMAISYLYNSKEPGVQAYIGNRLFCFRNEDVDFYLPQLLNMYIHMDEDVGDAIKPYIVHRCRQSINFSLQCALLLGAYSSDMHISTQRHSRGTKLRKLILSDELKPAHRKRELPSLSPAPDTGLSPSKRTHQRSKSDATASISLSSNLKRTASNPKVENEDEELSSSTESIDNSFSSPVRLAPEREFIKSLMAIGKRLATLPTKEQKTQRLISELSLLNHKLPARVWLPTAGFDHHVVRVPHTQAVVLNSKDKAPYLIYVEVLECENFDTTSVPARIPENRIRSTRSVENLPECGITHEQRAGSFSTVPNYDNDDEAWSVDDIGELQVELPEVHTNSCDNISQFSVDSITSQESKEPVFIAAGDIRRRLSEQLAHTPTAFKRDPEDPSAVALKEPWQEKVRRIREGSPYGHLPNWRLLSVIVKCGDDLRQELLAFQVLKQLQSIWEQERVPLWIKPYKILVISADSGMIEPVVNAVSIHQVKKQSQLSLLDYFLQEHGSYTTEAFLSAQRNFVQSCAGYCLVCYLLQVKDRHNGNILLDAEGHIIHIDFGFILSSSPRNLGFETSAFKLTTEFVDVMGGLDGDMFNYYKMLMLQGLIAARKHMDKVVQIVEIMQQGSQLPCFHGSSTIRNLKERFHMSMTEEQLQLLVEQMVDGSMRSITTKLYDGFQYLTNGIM
# Sequence of kinases in BCWM.1 cells (Homo sapiens, UniProt Q8TD19) (Q8TD19 2-979 limits assumed): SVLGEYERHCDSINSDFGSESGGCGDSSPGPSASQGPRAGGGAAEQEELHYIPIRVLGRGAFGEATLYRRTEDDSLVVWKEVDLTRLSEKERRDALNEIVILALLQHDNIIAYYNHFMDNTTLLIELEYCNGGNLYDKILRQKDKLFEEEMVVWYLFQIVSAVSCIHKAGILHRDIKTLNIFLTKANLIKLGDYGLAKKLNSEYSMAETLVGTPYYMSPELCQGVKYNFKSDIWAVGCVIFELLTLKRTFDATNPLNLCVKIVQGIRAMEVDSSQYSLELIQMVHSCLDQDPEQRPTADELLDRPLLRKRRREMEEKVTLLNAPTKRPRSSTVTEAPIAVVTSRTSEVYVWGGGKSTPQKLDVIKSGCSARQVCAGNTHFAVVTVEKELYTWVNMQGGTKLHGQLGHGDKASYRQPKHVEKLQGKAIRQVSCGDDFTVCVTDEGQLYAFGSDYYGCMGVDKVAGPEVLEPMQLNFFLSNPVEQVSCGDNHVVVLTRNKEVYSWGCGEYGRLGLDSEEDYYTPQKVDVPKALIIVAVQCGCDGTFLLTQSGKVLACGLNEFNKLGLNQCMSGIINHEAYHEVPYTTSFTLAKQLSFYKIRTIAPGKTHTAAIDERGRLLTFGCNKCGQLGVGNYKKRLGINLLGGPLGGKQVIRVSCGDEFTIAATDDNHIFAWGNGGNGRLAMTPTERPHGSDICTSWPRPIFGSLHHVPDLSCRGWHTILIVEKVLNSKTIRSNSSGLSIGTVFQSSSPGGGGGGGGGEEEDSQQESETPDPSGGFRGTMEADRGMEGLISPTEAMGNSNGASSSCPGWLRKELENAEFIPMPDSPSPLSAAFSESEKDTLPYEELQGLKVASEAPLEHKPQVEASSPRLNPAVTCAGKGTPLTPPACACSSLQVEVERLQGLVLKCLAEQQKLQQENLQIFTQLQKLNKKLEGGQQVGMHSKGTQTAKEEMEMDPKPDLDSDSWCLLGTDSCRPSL
compound,measurement,setting,value
CCC(=O)N1CC[C@H](Nc2nccc(Nc3ncc(C(=O)Nc4c(C)cccc4C)s3)n2)C1 [Example I-9],% change of MS signal compared to control sample,[1],23.4%
same,% change of MS signal compared to control sample,[2],−13.3%
same,% change of MS signal compared to control sample,[3],−6%
same,% change of MS signal compared to control sample,[4]; RSK2 domain1,−5.6%
same,% change of MS signal compared to control sample,[4]; RSK2 domain2,−9.7%
same,% change of MS signal compared to control sample,[5],−13.1%
same,% change of MS signal compared to control sample,[6],97.4%
same,% change of MS signal compared to control sample,[7],−5.6%
same,% change of MS signal compared to control sample,[8],20.2%
same,% change of MS signal compared to control sample,[9],−8%
same,% change of MS signal compared to control sample,[10],−21.3%
same,% change of MS signal compared to control sample,[11],−1.2%
same,% change of MS signal compared to control sample,[12],13.5%
same,% change of MS signal compared to control sample,[13],15.9%
same,% change of MS signal compared to control sample,[14],−11%
same,% change of MS signal compared to control sample,[15],−19.7%
same,% change of MS signal compared to control sample,[16],−24.3%
same,% change of MS signal compared to control sample,[17],−10.5%
same,% change of MS signal compared to control sample,"[18]; MST4, YSK1, Lys2",9.7%
same,% change of MS signal compared to control sample,"[18]; NEK6, NEK7, Lys2",−3.3%
same,% change of MS signal compared to control sample,"[18]; PCTAIRE2, PCTAIRE3, Lys1",−4.7%
same,% change of MS signal compared to control sample,"[18]; PI4KA, PI4KAP2, ATP",20.3%
same,% change of MS signal compared to control sample,"[18]; PKACa, PKCb, Lys2",16.9%
same,% change of MS signal compared to control sample,"[18]; ROCK1, ROCK2, Lys2",24.4%
same,% change of MS signal compared to control sample,"[18]; RSK1 domain1, RSK2 domain1, RSK3 domain1, Lys2",−12%
same,% change of MS signal compared to control sample,"[18]; SRPK1, SRPK2, Lys1",10%
same,% change of MS signal compared to control sample,"[18]; TAO1, TAO3, Lys2",5.1%
same,% change of MS signal compared to control sample,"[18]; Wnk1, Wnk2, Wnk3, Lys2",−10.8%
same,% change of MS signal compared to control sample,"[18]; Wnk1, Wnk2, ATP Loop",−6.3%
same,% change of MS signal compared to control sample,"[18]; ZC1/HGK, ZC2/TNIK, ZC3/MINK, Lys2",−2%
same,% change of MS signal compared to control sample,"[18]; p38d, p38g, Lys2",−8.8%
same,% change of MS signal compared to control sample,[19],−15%
same,% change of MS signal compared to control sample,[20],2.7%
same,% change of MS signal compared to control sample,[21],−51%
same,% change of MS signal compared to control sample,[22],−23.4%
same,% change of MS signal compared to control sample,[23],5.1%
same,% change of MS signal compared to control sample,[24]; Lys2,−7.8%
same,% change of MS signal compared to control sample,[24]; Protein Kinase Domain,−2.9%
same,% change of MS signal compared to control sample,[25],−17.7%
same,% change of MS signal compared to control sample,[26],24.3%

# — patent US10844077B2, “Thiazolyl-containing compounds for treating proliferative diseases” (Dana-Farber Cancer Institute, Inc., priority 2014, dated 2020)
